The text below walks through data of article PMC6681824 (Biochemistry, 2019).

Data set [1] in a line: Potentiometric titration of leaving-group acids. In kind it is physicochemical. The conditions noted are these: 0.1 M KCl, 25 °C.
For the next data set, the target named is T1, pol η (Homo sapiens, UniProt Q9Y253).
T1 sequence (Q9Y253 1-713): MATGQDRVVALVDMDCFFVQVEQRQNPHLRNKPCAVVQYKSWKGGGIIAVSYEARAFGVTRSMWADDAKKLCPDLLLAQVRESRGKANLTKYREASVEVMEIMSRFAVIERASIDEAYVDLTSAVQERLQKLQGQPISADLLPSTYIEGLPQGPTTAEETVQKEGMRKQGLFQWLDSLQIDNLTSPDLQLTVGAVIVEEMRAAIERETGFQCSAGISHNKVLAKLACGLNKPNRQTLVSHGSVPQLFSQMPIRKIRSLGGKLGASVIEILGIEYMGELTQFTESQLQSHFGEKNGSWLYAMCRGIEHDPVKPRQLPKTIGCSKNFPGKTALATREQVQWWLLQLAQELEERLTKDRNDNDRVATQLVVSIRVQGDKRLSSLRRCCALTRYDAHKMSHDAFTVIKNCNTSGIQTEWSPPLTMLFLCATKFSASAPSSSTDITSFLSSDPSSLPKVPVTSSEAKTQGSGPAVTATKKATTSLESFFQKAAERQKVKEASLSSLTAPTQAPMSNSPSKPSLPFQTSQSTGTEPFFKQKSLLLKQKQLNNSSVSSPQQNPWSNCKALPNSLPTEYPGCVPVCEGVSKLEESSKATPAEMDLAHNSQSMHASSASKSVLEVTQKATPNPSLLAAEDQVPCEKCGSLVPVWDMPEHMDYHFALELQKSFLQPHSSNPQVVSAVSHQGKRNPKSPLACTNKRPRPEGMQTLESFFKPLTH
In kind it is biochemical. The conditions noted are these: for increase in G·T misincorporation rate constant (kpol), W versus B: G opposite T, W sequence compared to B sequence; for Kd: read-out: apparent Kd.

Where [2] appears, read: G opposite T (mispair), B sequence.
[3] abbreviates: G opposite T (mispair), W sequence.
[4] abbreviates: A opposite T (correct), B sequence.
[5] abbreviates: A opposite T (correct), W sequence.

Where “and” joins values, the source holds several entries; their conditions need not be identical. Equal entries are not always repeated. Where two headings read alike, the source gives them in different places.

In data set [1], `O=P(O)(O)NP(=O)(O)O` [imidodiphosphoric acid] came in with a pKa1 of 2.01, a pKa2 of 2.81 and a pKa3 of 7.11. For the same compound, the “pKa4 (soln)” value in data set [1] (imidodiphosphoric acid (NH leaving group)) stood at 9.70.

In the case of `Nc1nc2c(ncn2C2CC(O)C(COP(=O)(O)OP(=O)(O)C(F)P(=O)(O)O)O2)c(=O)[nH]1` (stereo not shown) [dGTP-CHF], the “kpol (chemical misincorporation rate constant)” value was determined as 0.032 ± 0.005 s⁻¹ at pol η (setting [2]) and 0.12 ± 0.00 s⁻¹ at pol η (setting [3]). The “increase in G·T misincorporation rate constant (kpol), W versus B” value on pol η was 3.8 fold and 4 fold; on pol η (listed as CHF-dG), 3–4 fold. Also, the Kd stood at 370 ± 60 µM on pol η (setting [2]) and 390 ± 20 µM at pol η (setting [3]).

On to `Nc1nc2c(ncn2[C@H]2C[C@H](O)[C@@H](COP(=O)(O)OP(=O)(O)OP(=O)(O)O)O2)c(=O)[nH]1` [dGTP], for which the “kpol (chemical misincorporation rate constant)” value at pol η (setting [2]) stood at 0.21 ± 0.02 s⁻¹; at pol η (setting [3]), 0.86 ± 0.02 s⁻¹. Further, at pol η, the “increase in G·T misincorporation rate constant (kpol), W versus B” value was ~ 4 fold and 3–4 fold and 4 fold. Also, the results for the Kd on pol η (setting [2]) and on pol η (setting [3]) were 30 ± 3 µM and 20 ± 4 µM, respectively.

Take `Nc1ncnc2c1ncn2[C@H]1CC(O)[C@@H](COP(=O)(O)OP(=O)(O)C(F)P(=O)(O)O)O1` (stereo partly shown) [dATP-CHF]: the Kd was determined as 190 ± 80 µM on pol η (setting [4]) and 140 ± 20 µM at pol η (setting [5]).

Take `Nc1ncnc2c1ncn2[C@H]1C[C@H](O)[C@@H](COP(=O)(O)OP(=O)(O)OP(=O)(O)O)O1` [dATP]: the Kd on pol η (setting [4]) amounted to 9.4 ± 3.1 µM; at pol η (setting [5]), 7.1 ± 2.1 µM.
